This is an account of results in patent publication US20210071180A1, “MICRORNA 584-5P COMPOSITIONS AND METHODS FOR TREATING CANCER” (BOARD OF REGENTS, THE UNIVERSY OF TEXAS SYSTEM, priority 2018, published 2021).

One assay relates to melanoma cells. To be noted: cited from earlier work.
The test system of the next assay is D458Med cells. In words: miRNA mimic library screen, CellTiter-Glo cell viability. The class given is cell-based. To be noted: D458Med cells, 72 hours. How it is done: To identify miRNAs that may sensitize VCR response in MB, a high-throughput screening platform was combined with a library of 1,902 chemically synthesized human miRNA mimics. The miRNAs are arrayed in a one-miRNA-one-well format in 96-well microtiter plates. Reverse transfection of Group 3/c-Myc-amplified D458Med cells was performed in triplicate in the presence and absence of a sublethal dose of VCR, which was optimized in four MB cell lines before the screen (FIG. 2A). Cells were subjected to VCR at an IC20 lethal concentration for 72 hours after 48 hours of transfection, and cell viability was measured (FIG. 1A). Candidate miRNAs were prioritized for validation by functional and interaction assays using standard Student t-tests (with pooled variance), false discovery rate (Q=0.5%), and by using the magnitude of response (lowest 2.5 percentile of the distribution of the μVCR/μControl ratios).
miRNA mimic library screen. The primary screen was conducted using MI00200 MISSION microRNA Mimic v.17, in which miRNA mimics were arrayed in a one-miRNA-one-well format in 96-well microtiter plates. […] Cell viability was assessed using CellTiter-Glo (Promega, Madison, Wis., USA) according to the manufacturer's protocol. ath-miR-416 or cel-miR-243 was added as a negative control, whereas siRNA against PLK-1 was used as a positive control in each plate. […]

For `Nc1ccccc1NC(=O)c1ccc(CNC(=O)OCc2cccnc2)cc1` [MS-275], in the assay on melanoma cells, the RAD51 expression entry is “decreases RAD51 expression” and the “homologous recombination (HR)” value is listed as “blocks HR”.
In turn, `CC[C@]1(O)C[C@H]2CN(CCc3c([nH]c4ccccc34)[C@@](C(=O)OC)(c3cc4c(cc3OC)N(C=O)[C@H]3[C@@](O)(C(=O)OC)[C@H](OC(C)=O)[C@]5(CC)C=CCN6CC[C@]43[C@@H]65)C2)C1` [VCR, vincristine, reference compound] displayed a 20% inhibitory concentration with D458Med cells of 2 nM.
